Laboratory results as given in patent publication US20230365537A1, “POLO LIKE KINASE 4 INHIBITORS” (ORIC Pharmaceuticals, Inc., priority 2021, published 2023).

Assays:
[1] = molecular target: human recombinant PLK4 (Homo sapiens (Human), UniProt O00444); experiment: PLK4 Biochemical Assay (ADP-Glo); settings: 0.5 nM PLK4, 8.0 µM ATP, 4.7 µM MBP, 6 hours at RT
Method in brief: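 Luminescent ADP-Glo detection quantified ADP production, with ATP depletion for 40 min and detection for 30 min at room temperature. Compound and PLK4 (1.0 nM stock addition) were preincubated 15 min in HEPES pH 7.5 buffer containing MgCl2, EGTA, DTT, Brij-35 and BSA. IC50 values were obtained by four-parameter nonlinear regression.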

[2] = molecular target: human recombinant Aurora A (Homo sapiens (Human), UniProt O14965); experiment: Aurora A Kinase Biochemical Assay (ADP-Glo); settings: ratio of Aurora A IC50 to PLK4 IC50 (selectivity)
Sequence of human recombinant Aurora A (O14965 whole entry): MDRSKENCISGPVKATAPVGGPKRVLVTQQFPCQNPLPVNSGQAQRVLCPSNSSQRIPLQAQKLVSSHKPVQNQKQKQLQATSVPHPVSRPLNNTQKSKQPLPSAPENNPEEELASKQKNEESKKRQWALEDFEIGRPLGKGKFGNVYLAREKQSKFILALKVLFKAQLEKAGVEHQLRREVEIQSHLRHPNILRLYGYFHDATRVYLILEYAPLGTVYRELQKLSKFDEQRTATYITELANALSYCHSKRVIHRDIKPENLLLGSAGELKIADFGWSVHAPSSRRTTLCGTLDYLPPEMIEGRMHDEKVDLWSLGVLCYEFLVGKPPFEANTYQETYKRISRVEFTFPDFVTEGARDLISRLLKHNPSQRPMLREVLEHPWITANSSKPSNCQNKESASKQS

[3] = test system: CHP-134 cells; experiment: CHP134 CellTiter-Glo (CTG) Assay; format: cell-based; settings: Homo sapiens, CHP-134, 120 h, 5 days, viable cells by CellTiter-Glo
Description: Cells were seeded (200 cells/well) in 384-well plates for 16 hours. On day two, nine serial 1:3 compound dilutions were made in DMSO in a 96-well plate. The compounds were then further diluted into growth media using a BRAVO robot (Agilent, Santa Clara, CA). The diluted compounds were then added to quadruplicate wells in the 384-well cell plate and incubated at 37° C. and 5% CO2. After 5 days, relative numbers of viable cells were measured by luminescence using CellTiter-Glo® (Promega) according to the manufacturer’s instructions and read on a SPARK Multimode Microplate Reader (Tecan, Mannedorf Switzerland). The IC50 calculations for the values reported in Table 2 were carried out using Prism 6.0 software (GraphPad, San Diego).

[4] = molecular target: human recombinant Aurora B (Homo sapiens (Human), UniProt Q96GD4); experiment: Aurora B Kinase Biochemical Assay (ADP-Glo); settings: ratio of Aurora B IC50 to PLK4 IC50 (selectivity)
Sequence of human recombinant Aurora B (Q96GD4 whole entry): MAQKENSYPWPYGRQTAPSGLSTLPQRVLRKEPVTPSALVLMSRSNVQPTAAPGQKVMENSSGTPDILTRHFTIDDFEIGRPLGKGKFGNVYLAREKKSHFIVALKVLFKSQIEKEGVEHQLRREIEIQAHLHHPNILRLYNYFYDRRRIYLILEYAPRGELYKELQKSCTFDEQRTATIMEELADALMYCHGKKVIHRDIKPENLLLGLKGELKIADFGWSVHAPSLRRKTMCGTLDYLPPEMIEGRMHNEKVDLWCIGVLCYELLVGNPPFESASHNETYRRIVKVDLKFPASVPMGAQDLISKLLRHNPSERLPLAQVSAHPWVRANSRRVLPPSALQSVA
Method in brief: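 IC50 derived by four-parameter nonlinear fit of ADP-Glo luminescence (ADP produced). Compound was preincubated 15 min at RT with 20 nM recombinant human Aurora B, in 50 mM HEPES pH 7.5, 10 mM MgCl2, 1 mM EGTA, 1 mM DTT, 0.01% Brij-35/BSA.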

Sequence of human recombinant PLK4 (O00444 whole entry): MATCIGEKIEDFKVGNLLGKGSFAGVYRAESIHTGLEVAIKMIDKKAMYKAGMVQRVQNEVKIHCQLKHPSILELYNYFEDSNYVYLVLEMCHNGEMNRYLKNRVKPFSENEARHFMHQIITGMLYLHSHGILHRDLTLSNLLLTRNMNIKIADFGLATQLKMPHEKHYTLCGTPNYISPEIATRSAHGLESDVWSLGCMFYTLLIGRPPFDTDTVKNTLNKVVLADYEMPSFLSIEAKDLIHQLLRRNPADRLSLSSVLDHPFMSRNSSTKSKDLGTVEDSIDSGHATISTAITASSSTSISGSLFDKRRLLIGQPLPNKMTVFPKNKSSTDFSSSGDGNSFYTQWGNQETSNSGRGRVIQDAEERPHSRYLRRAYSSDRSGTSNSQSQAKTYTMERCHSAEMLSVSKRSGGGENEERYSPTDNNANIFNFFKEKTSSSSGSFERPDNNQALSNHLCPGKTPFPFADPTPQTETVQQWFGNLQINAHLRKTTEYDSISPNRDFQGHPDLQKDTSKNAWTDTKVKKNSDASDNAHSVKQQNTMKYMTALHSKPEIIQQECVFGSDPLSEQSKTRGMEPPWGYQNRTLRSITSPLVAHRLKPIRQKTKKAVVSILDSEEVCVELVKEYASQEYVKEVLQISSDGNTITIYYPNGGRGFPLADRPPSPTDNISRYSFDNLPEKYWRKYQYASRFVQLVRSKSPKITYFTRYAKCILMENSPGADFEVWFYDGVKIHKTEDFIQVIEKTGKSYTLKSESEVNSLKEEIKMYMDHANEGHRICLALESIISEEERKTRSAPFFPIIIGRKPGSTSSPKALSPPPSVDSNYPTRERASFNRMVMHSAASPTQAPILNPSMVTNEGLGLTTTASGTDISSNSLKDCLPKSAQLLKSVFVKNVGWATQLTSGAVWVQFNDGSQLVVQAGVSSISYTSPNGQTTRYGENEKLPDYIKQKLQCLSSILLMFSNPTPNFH

Structure (SMILES): COc1ccc2c(c1)[C@]1(C[C@H]1c1ccc3c(Nc4nc(C5CC5)nc(N5CC(O)C5)c4OC)n[nH]c3c1)C(=O)N2.O=C(O)C(F)(F)F [Example 81, (1R,2S)-2-(3-{[2-cyclopropyl-6-(3-hydroxyazetidin-1-yl)-5-methoxypyrimidin-4-yl]amino}-1H-indazol-6-yl)-5′-methoxyspiro[cyclopropane-1,3′-indol]-2′(1′H)-one]
- IC50 [1]: 3.63 nM
- [Aurora A IC50 (nM)]/[PLK4 IC50 (nM)] [2]: 1478.393
- IC50 [3]: 965 nM
- [Aurora B IC50 (nM)]/[PLK4 IC50 (nM)] [4]: 220.4239

Structure (SMILES): COc1ccc2c(c1)[C@]1(C[C@H]1c1ccc3c(Nc4nc(C(C)C)cnc4OC)n[nH]c3c1)C(=O)N2 [Example 83, (1R,2S)-5′-methoxy-2-(3-{[3-methoxy-6-(propan-2-yl)pyrazin-2-yl]amino}-1H-indazol-6-yl)spiro[cyclopropane-1,3′-indol]-2′(1′H)-one]
- IC50 [1]: 2.24 nM
- [Aurora A IC50 (nM)]/[PLK4 IC50 (nM)] [2]: 908.4004
- IC50 [3]: 277 nM
- [Aurora B IC50 (nM)]/[PLK4 IC50 (nM)] [4]: 333.3333

Structure (SMILES): COc1ccc2c(c1)[C@]1(C[C@H]1c1ccc3c(Nc4nc(C(C)C)nc(N5CCS(=O)(=O)CC5)c4OC)n[nH]c3c1)C(=O)N2 [Example 84, (1R,2S)-2-(3-((6-(1,1-dioxidothiomorpholino)-2-isopropyl-5-methoxypyrimidin-4-yl)amino)-1H-indazol-6-yl)-5′-methoxyspiro[cyclopropane-1,3′-indolin]-2′-one]
- IC50 [1]: 1.28 nM
- [Aurora A IC50 (nM)]/[PLK4 IC50 (nM)] [2]: 39123.63
- IC50 [3]: 395 nM
- [Aurora B IC50 (nM)]/[PLK4 IC50 (nM)] [4]: 3151.017

Structure (SMILES): COc1ccc2c(c1)[C@]1(C[C@H]1c1ccc3c(Nc4nc(C(C)C)nc(N5CCOCC5)c4OC)n[nH]c3c1)C(=O)N2 [Example 85, (1R,2S)-5′-methoxy-2-(3-{[5-methoxy-6-(morpholin-4-yl)-2-(propan-2-yl)pyrimidin-4-yl]amino}-1H-indazol-6-yl)spiro[cyclopropane-1,3′-indol]-2′(1′H)-one]
- IC50 [1]: 1.91 nM
- [Aurora A IC50 (nM)]/[PLK4 IC50 (nM)] [2]: 5554.974
- IC50 [3]: 107 nM
- [Aurora B IC50 (nM)]/[PLK4 IC50 (nM)] [4]: 3067.539

Structure (SMILES): COc1ccc2c(c1)[C@]1(C[C@H]1c1ccc3c(Nc4cc(C)ncc4OC)n[nH]c3c1)C(=O)N2 [Example 86, (1R,2S)-5′-methoxy-2-{3-[(5-methoxy-2-methylpyridin-4-yl)amino]-1H-indazol-6-yl}spiro[cyclopropane-1,3′-indol]-2′(1′H)-one]
- IC50 [1]: 21.2 nM
- [Aurora A IC50 (nM)]/[PLK4 IC50 (nM)] [2]: 1414.623
- IC50 [3]: 459 nM
- [Aurora B IC50 (nM)]/[PLK4 IC50 (nM)] [4]: 669.3396

Structure (SMILES): COc1ccc2c(c1)[C@]1(C[C@H]1c1ccc3c(Nc4nc(C)ncc4OC)n[nH]c3c1)C(=O)N2 [Example 87, (1R,2S)-5′-methozy-2-{3-[(5-methoxy-2-methylpyrimidin-4-yl)amino]-1H-indazol-6-yl}spiro[cyclopropane-1,3′-indol]-2′(1′H)-one]
- IC50 [1]: 1.58 nM
- [Aurora A IC50 (nM)]/[PLK4 IC50 (nM)] [2]: 973.4177
- IC50 [3]: 235 nM
- [Aurora B IC50 (nM)]/[PLK4 IC50 (nM)] [4]: 133.9241

Structure (SMILES): COc1ccc2c(c1)[C@]1(C[C@H]1c1ccc3c(Nc4nc(C)ccc4OC)n[nH]c3c1)C(=O)N2 [Example 88, (1R,2S)-5′-methoxy-2-{3-[(3-methoxy-6-methylpyridin-2-yl)amino]-1H-indazol-6-yl}spiro[cyclopropane-1,3′-indol]-2′(1′H)-one]
- IC50 [1]: 2.67 nM
- [Aurora A IC50 (nM)]/[PLK4 IC50 (nM)] [2]: 1997.754
- IC50 [3]: 1810 nM
- [Aurora B IC50 (nM)]/[PLK4 IC50 (nM)] [4]: 44.7979

Structure (SMILES): COc1ccc2c(c1)[C@]1(C[C@H]1c1ccc3c(Nc4cc(C)cnc4OC)n[nH]c3c1)C(=O)N2 [Example 89, (1R,2S)-5′-methoxy-2-{3-[(2-methoxy-5-methylpyridin-3-yl)amino]-1H-indazol-6-yl}spiro[cyclopropane-1,3′-indol]-2′(1′H)-one]
- IC50 [1]: 2.32 nM
- [Aurora A IC50 (nM)]/[PLK4 IC50 (nM)] [2]: 1736.729
- IC50 [3]: 10000 nM
- [Aurora B IC50 (nM)]/[PLK4 IC50 (nM)] [4]: 314.3289
